Measurements taken from publication PMC9481151, “Discovery of new symmetrical and asymmetrical nitrile-containing 1,4-dihydropyridine derivatives as dual kinases and P-glycoprotein inhibitors: synthesis, in vitro assays, and in silico studies” (Journal of Enzyme Inhibition and Medicinal Chemistry, 2022).

Experiments:
[1] = system: CCRF-CEM; assay: NCI single dose (10 µM) SRB screen; format: cell-based, human; conditions: leukaemia, 48 h
[2] = system: HL-60(TB); assay: NCI single dose (10 µM) SRB screen; format: cell-based, human; conditions: leukaemia, 48 h
[3] = system: K-562; assay: NCI single dose (10 µM) SRB screen; format: cell-based, human; conditions: leukaemia, 48 h
[4] = system: MOLT-4; assay: NCI single dose (10 µM) SRB screen; format: cell-based, human; conditions: leukaemia, 48 h
[5] = system: RPMI-8226; assay: NCI single dose (10 µM) SRB screen; format: cell-based, human; conditions: leukaemia, 48 h
[6] = system: SR; assay: NCI single dose (10 µM) SRB screen; format: cell-based, human; conditions: leukaemia, 48 h
[7] = system: A549/ATCC; assay: NCI single dose (10 µM) SRB screen; format: cell-based, human; conditions: non-small cell lung cancer, 48 h
[8] = system: EKVX; assay: NCI single dose (10 µM) SRB screen; format: cell-based, human; conditions: non-small cell lung cancer, 48 h
[9] = system: HOP-62; assay: NCI single dose (10 µM) SRB screen; format: cell-based, human; conditions: non-small cell lung cancer, 48 h
[10] = system: HOP-92; assay: NCI single dose (10 µM) SRB screen; format: cell-based, human; conditions: non-small cell lung cancer, 48 h
[11] = system: NCI-H226; assay: NCI single dose (10 µM) SRB screen; format: cell-based, human; conditions: non-small cell lung cancer, 48 h
[12] = system: NCI-H23; assay: NCI single dose (10 µM) SRB screen; format: cell-based, human; conditions: non-small cell lung cancer, 48 h
[13] = system: NCI-H322M; assay: NCI single dose (10 µM) SRB screen; format: cell-based; conditions: non-small cell lung cancer, 48 h
[14] = system: NCI-H460; assay: NCI single dose (10 µM) SRB screen; format: cell-based, human; conditions: non-small cell lung cancer, 48 h
[15] = system: NCI-H522; assay: NCI single dose (10 µM) SRB screen; format: cell-based, human; conditions: non-small cell lung cancer, 48 h
[16] = system: COLO 205; assay: NCI single dose (10 µM) SRB screen; format: cell-based, human; conditions: colon cancer, 48 h
[17] = system: HCC-2998; assay: NCI single dose (10 µM) SRB screen; format: cell-based, human; conditions: colon cancer, 48 h
[18] = system: HCT-116; assay: NCI single dose (10 µM) SRB screen; format: cell-based, human; conditions: colon cancer, 48 h
[19] = system: HCT-15; assay: NCI single dose (10 µM) SRB screen; format: cell-based, human; conditions: colon cancer, 48 h
[20] = system: HT29; assay: NCI single dose (10 µM) SRB screen; format: cell-based, human; conditions: colon cancer, 48 h
[21] = system: KM12; assay: NCI single dose (10 µM) SRB screen; format: cell-based, human; conditions: colon cancer, 48 h
[22] = system: SW-620; assay: NCI single dose (10 µM) SRB screen; format: cell-based, human; conditions: colon cancer, 48 h
[23] = system: SF-268; assay: NCI single dose (10 µM) SRB screen; format: cell-based, human; conditions: CNS cancer, 48 h
[24] = system: SF-295; assay: NCI single dose (10 µM) SRB screen; format: cell-based, human; conditions: CNS cancer, 48 h
[25] = system: SF-539; assay: NCI single dose (10 µM) SRB screen; format: cell-based, human; conditions: CNS cancer, 48 h
[26] = system: SNB-19; assay: NCI single dose (10 µM) SRB screen; format: cell-based, human; conditions: CNS cancer, 48 h
[27] = system: SNB-75; assay: NCI single dose (10 µM) SRB screen; format: cell-based, human; conditions: CNS cancer, 48 h
[28] = system: U251; assay: NCI single dose (10 µM) SRB screen; format: cell-based, human; conditions: CNS cancer, 48 h
[29] = system: LOX IMVI; assay: NCI single dose (10 µM) SRB screen; format: cell-based, human; conditions: melanoma, 48 h
[30] = system: MALME-3M; assay: NCI single dose (10 µM) SRB screen; format: cell-based, human; conditions: melanoma, 48 h
[31] = system: M14; assay: NCI single dose (10 µM) SRB screen; format: cell-based, human; conditions: melanoma, 48 h
[32] = system: MDA-MB-435; assay: NCI single dose (10 µM) SRB screen; format: cell-based, human; conditions: melanoma, 48 h
[33] = system: SK-MEL-2; assay: NCI single dose (10 µM) SRB screen; format: cell-based, human; conditions: melanoma, 48 h
[34] = system: SK-MEL-28; assay: NCI single dose (10 µM) SRB screen; format: cell-based, human; conditions: melanoma, 48 h
[35] = system: SK-MEL-5; assay: NCI single dose (10 µM) SRB screen; format: cell-based, human; conditions: melanoma, 48 h
[36] = system: UACC-257; assay: NCI single dose (10 µM) SRB screen; format: cell-based, human; conditions: melanoma, 48 h
[37] = system: UACC-62; assay: NCI single dose (10 µM) SRB screen; format: cell-based, human; conditions: melanoma, 48 h
[38] = system: IGROV1; assay: NCI single dose (10 µM) SRB screen; format: cell-based, human; conditions: ovarian cancer, 48 h
[39] = system: OVCAR-3; assay: NCI single dose (10 µM) SRB screen; format: cell-based, human; conditions: ovarian cancer, 48 h
[40] = system: OVCAR-4; assay: NCI single dose (10 µM) SRB screen; format: cell-based, human; conditions: ovarian cancer, 48 h
[41] = system: OVCAR-5; assay: NCI single dose (10 µM) SRB screen; format: cell-based, human; conditions: ovarian cancer, 48 h
[42] = system: OVCAR-8; assay: NCI single dose (10 µM) SRB screen; format: cell-based, human; conditions: ovarian cancer, 48 h
[43] = system: NCI/ADR-RES; assay: NCI single dose (10 µM) SRB screen; format: cell-based, human; conditions: ovarian cancer, 48 h
[44] = system: SK-OV-3; assay: NCI single dose (10 µM) SRB screen; format: cell-based, human; conditions: ovarian cancer, 48 h
[45] = system: 786-0; assay: NCI single dose (10 µM) SRB screen; format: cell-based, human; conditions: renal cancer, 48 h
[46] = system: A498; assay: NCI single dose (10 µM) SRB screen; format: cell-based, human; conditions: renal cancer, 48 h
[47] = system: ACHN; assay: NCI single dose (10 µM) SRB screen; format: cell-based, human; conditions: renal cancer, 48 h
[48] = system: CAKI-1; assay: NCI single dose (10 µM) SRB screen; format: cell-based, human; conditions: renal cancer, 48 h
[49] = system: RXF 393; assay: NCI single dose (10 µM) SRB screen; format: cell-based, human; conditions: renal cancer, 48 h
[50] = system: SN12C; assay: NCI single dose (10 µM) SRB screen; format: cell-based, human; conditions: renal cancer, 48 h
[51] = system: TK-10; assay: NCI single dose (10 µM) SRB screen; format: cell-based, human; conditions: renal cancer, 48 h
[52] = system: UO-31; assay: NCI single dose (10 µM) SRB screen; format: cell-based, human; conditions: renal cancer, 48 h
[53] = system: PC-3; assay: NCI single dose (10 µM) SRB screen; format: cell-based, human; conditions: prostate cancer, 48 h
[54] = system: DU-145; assay: NCI single dose (10 µM) SRB screen; format: cell-based, human; conditions: prostate cancer, 48 h
[55] = system: MCF7; assay: NCI single dose (10 µM) SRB screen; format: cell-based, human; conditions: breast cancer, 48 h
[56] = system: MDA-MB-231; assay: NCI single dose (10 µM) SRB screen; format: cell-based, human; conditions: breast cancer, 48 h
[57] = system: HS578T; assay: NCI single dose (10 µM) SRB screen; format: cell-based, human; conditions: breast cancer, 48 h
[58] = system: BT-549; assay: NCI single dose (10 µM) SRB screen; format: cell-based, human; conditions: breast cancer, 48 h
[59] = system: T-47D; assay: NCI single dose (10 µM) SRB screen; format: cell-based, human; conditions: breast cancer, 48 h
[60] = system: MDA-MB-468; assay: NCI single dose (10 µM) SRB screen; format: cell-based, human; conditions: breast cancer, 48 h
[61] = system: NCI 60 cancer cell lines; assay: NCI single dose (10 µM) SRB screen, mean over panel; format: cell-based, human; conditions: mean over 60 cell lines, 48 h
[62] = system: Staphylococcus aureus; assay: Agar well diffusion method
[63] = system: Bacillus subtilis; assay: Agar well diffusion method; conditions: relative to ciprofloxacin
[64] = system: Escherichia coli; assay: Agar well diffusion method; conditions: relative to ciprofloxacin
[65] = system: Pseudomonas aeruginosa; assay: Agar well diffusion method; conditions: relative to ciprofloxacin
[66] = system: Candida albicans; assay: Agar well diffusion method; conditions: relative to clotrimazole
[67] = system: Aspergillus flavus; assay: Agar well diffusion method

## Diethyl 4-(3-cyanophenyl)-2,6-dipropyl-1,4-dihydropyridine-3,5-dicarboxylate [Compound 1h]
[1]
  GI% CCRF-CEM: 24%
[2]
  GI% HL-60(TB): – (Only GI% ≥ 10 are shown)
[3]
  GI% K-562: 31%
[4]
  GI% MOLT-4: 38%
[5]
  GI% RPMI-8226: 34%
[6]
  GI% SR: 32%
[7]
  GI% A549/ATCC: 21%
[8]
  GI% EKVX: 21%
[9]
  GI% HOP-62: – (Only GI% ≥ 10 are shown)
[10]
  GI% HOP-92: 29%
[11]
  GI% NCI-H226: 26%
[12]
  GI% NCI-H23: – (Only GI% ≥ 10 are shown)
[13]
  GI% NCI-H322M: – (Only GI% ≥ 10 are shown)
[14]
  GI% NCI-H460: – (Only GI% ≥ 10 are shown)
[15]
  GI% NCI-H522: 20%
[16]
  GI% COLO 205: – (Only GI% ≥ 10 are shown)
[17]
  GI% HCC-2998: – (Only GI% ≥ 10 are shown)
[18]
  GI% HCT-116: 30%
[19]
  GI% HCT-15: 17%
[20]
  GI% HT29: 12%
[21]
  GI% KM12: – (Only GI% ≥ 10 are shown)
[22]
  GI% SW-620: – (Only GI% ≥ 10 are shown)
[23]
  GI% SF-268: 22%
[24]
  GI% SF-295: 11%
[25]
  GI% SF-539: 14%
[26]
  GI% SNB-19: – (Only GI% ≥ 10 are shown)
[27]
  GI% SNB-75: 42%
[28]
  GI% U251: – (Only GI% ≥ 10 are shown)
[29]
  GI% LOX IMVI: – (Only GI% ≥ 10 are shown)
[30]
  GI% MALME-3M: – (Only GI% ≥ 10 are shown)
[31]
  GI% M14: – (Only GI% ≥ 10 are shown)
[32]
  GI% MDA-MB-435: – (Only GI% ≥ 10 are shown)
[33]
  GI% SK-MEL-2: – (Only GI% ≥ 10 are shown)
[34]
  GI% SK-MEL-28: – (Only GI% ≥ 10 are shown)
[35]
  GI% SK-MEL-5: 31%
[36]
  GI% UACC-257: – (Only GI% ≥ 10 are shown)
[37]
  GI% UACC-62: 19%
[38]
  GI% IGROV1: 10%
[39]
  GI% OVCAR-3: – (Only GI% ≥ 10 are shown)
[40]
  GI% OVCAR-4: 32%
[41]
  GI% OVCAR-5: – (Only GI% ≥ 10 are shown)
[42]
  GI% OVCAR-8: – (Only GI% ≥ 10 are shown)
[43]
  GI% NCI/ADR-RES: 18%
[44]
  GI% SK-OV-3: – (Only GI% ≥ 10 are shown)
[45]
  GI% 786-0: 16%
[46]
  GI% A498: 18%
[47]
  GI% ACHN: – (Only GI% ≥ 10 are shown)
[48]
  GI% CAKI-1: 30%
[49]
  GI% RXF 393: 18%
[50]
  GI% SN12C: – (Only GI% ≥ 10 are shown)
[51]
  GI% TK-10: – (Only GI% ≥ 10 are shown)
[52]
  GI% UO-31: 19%
[53]
  GI% PC-3: 47%
[54]
  GI% DU-145: – (Only GI% ≥ 10 are shown)
[55]
  GI% MCF7: 25%
[56]
  GI% MDA-MB-231: – (Only GI% ≥ 10 are shown)
[57]
  GI% HS578T: 18%
[58]
  GI% BT-549: 14%
[59]
  GI% T-47D: 32%
[60]
  GI% MDA-MB-468: 20%
[61]
  Mean GI%: 14%
[62]; 1 mg/mL in DMSO, 24 h, 36 °C
  Diameter of inhibition zone, S. aureus: 7 mm
[62]; relative to ciprofloxacin
  % activity index, S. aureus: 29.2%
[63]
  % activity index, B. subtilis: – (Values below 25 are of limited value and not shown as they refer either to inactive or non-diffusing compounds)
[64]
  % activity index, E. coli: – (Values below 25 are of limited value and not shown as they refer either to inactive or non-diffusing compounds)
[65]
  % activity index, P. aeruginosa: – (Values below 25 are of limited value and not shown as they refer either to inactive or non-diffusing compounds)
[66]
  % activity index, C. albicans: – (Values below 25 are of limited value and not shown as they refer either to inactive or non-diffusing compounds)
[67]; 1 mg/mL in DMSO, 24 h, 36 °C
  Diameter of inhibition zone, A. flavus: 8 mm
[67]; relative to clotrimazole
  % activity index, A. flavus: 32%
